Results taken from ChEMBL document CHEMBL1128893, “Synthesis and characterization of N-(acenaphth-5-yl)-N'-(4-methoxynaphth-1-yl)guanidine as a glutamate release inhibitor and potential anti-ischemic agent” (Bioorg Med Chem Lett, 1995).

Key:
[1] = target: T1, Sodium channel protein type 2 subunit alpha (Homo sapiens, UniProt Q99250); experiment: (§1) Blockade of synaptosomal sodium channels, inhibition of [14C]guanidinium ion flux into CHO cells expressing Type II sodium channel
[2] = target: T1, Sodium channel protein type 2 subunit alpha; experiment: as §1; format: functional, cell-based
[3] = target: Sodium channel alpha subunits; brain (Types I, II, III) (Rattus norvegicus) (UniProt P04775+P04774+P08104); details: at 3 µM
Description: Inhibition of veratridine-induced glutamate release, blockade of rat brain synaptosome voltage-gated sodium channels at 3 uM

Rattus norvegicus = organism: Rattus norvegicus; experiment: Compound was evaluated for the inhibition of K+ -evoked glutamate release through block of voltage-gated [Ca2+] -channels, in the rat brain synaptosomal preparations; format: functional, organism-based
[4] = Inhibition of 45 [Ca2+] flux into rat brain synaptosomes depolarized by elevated potassium concentrations; format: functional, subcellular

T1 sequence (Q99250 whole entry): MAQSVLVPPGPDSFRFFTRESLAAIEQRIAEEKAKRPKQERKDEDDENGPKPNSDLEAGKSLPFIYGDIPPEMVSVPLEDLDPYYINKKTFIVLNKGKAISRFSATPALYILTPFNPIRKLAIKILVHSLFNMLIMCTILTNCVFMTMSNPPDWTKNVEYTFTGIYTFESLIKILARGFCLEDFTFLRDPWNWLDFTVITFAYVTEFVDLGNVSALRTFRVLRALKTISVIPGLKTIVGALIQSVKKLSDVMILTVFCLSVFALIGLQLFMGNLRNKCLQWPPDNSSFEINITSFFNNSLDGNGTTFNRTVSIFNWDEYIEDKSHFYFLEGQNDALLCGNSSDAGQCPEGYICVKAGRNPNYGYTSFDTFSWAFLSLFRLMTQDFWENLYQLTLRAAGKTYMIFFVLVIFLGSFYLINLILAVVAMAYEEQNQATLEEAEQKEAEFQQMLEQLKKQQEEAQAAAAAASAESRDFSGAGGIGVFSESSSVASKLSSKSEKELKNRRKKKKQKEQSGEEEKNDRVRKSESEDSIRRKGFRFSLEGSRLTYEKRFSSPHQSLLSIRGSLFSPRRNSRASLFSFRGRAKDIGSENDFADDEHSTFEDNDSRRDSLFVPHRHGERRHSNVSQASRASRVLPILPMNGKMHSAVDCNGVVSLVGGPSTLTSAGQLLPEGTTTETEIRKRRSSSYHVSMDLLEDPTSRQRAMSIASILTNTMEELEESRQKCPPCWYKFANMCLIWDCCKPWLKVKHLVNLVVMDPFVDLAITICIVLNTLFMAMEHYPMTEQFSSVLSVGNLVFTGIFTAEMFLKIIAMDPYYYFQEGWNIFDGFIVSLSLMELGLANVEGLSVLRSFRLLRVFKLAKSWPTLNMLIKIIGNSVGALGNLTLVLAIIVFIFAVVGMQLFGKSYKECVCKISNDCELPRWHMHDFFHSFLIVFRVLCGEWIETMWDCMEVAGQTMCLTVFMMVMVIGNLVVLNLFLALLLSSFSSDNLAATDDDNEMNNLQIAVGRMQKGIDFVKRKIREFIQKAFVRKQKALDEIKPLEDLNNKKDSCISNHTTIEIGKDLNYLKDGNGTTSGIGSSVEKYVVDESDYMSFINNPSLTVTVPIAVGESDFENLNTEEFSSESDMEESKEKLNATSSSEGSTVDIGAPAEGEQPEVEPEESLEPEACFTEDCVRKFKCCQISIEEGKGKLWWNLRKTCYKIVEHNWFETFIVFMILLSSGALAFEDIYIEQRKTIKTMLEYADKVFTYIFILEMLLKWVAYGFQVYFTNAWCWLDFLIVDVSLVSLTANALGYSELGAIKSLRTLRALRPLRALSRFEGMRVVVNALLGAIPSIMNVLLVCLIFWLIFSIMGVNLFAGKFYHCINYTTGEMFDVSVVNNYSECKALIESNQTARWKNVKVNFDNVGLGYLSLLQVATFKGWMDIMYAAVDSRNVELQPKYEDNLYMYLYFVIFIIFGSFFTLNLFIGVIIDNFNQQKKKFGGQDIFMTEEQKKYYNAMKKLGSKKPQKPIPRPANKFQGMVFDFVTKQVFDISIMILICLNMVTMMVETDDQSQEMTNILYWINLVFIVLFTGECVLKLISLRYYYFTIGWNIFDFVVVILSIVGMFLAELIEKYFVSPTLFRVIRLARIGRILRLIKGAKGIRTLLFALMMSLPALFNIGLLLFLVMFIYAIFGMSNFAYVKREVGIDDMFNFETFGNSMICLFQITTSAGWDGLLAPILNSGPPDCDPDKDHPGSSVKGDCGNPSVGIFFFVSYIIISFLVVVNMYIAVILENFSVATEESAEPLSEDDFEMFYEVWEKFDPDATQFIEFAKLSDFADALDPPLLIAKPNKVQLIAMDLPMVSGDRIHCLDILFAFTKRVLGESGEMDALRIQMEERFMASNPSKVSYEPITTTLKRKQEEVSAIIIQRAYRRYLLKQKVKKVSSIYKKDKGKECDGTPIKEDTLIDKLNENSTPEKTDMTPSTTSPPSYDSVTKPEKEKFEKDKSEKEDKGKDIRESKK

`CN1CCN(c2ncc(-c3cc(Cl)cc(Cl)c3Cl)c(N)n2)CC1` [SIPATRIGINE] showed an IC50 [1] of 2550 nM.

With `COc1ccc(/N=C(\N)Nc2ccc3c4c(cccc24)CC3)c2ccccc12` the IC50 [2] was 1310 nM, the Block [3] was 87% and the IC50 (Rattus norvegicus) was 1000 nM. It also gave an IC50 [4] of 2240 nM.

Compound `N=C(Nc1ccc2c3c(cccc13)CC2)Nc1ccc2c3c(cccc13)CC2` has an IC50 [2] of 2030 nM, an IC50 (Rattus norvegicus) of 800 nM and an IC50 [4] of 1130 nM.

For `Nc1nc2ccc(OC(F)(F)F)cc2s1` [RILUZOLE], the IC50 [2] was 2200 nM, the Block [3] was 49% and the IC50 [4] was > 30000 nM.
